Source: paper PMC10301896 (Pharmaceutics, 2023)
Several values for one entry are separate records, joined by “and”; a condition that tells them apart may be missing. Equal values may be shown once. Entries after “also recorded” stand apart in the source; their conditions may differ. Where a name gives a salt, the structure may show the parent alone.

Key:
[1] = Chelation with Al3+ ion in vitro (precipitation with AlCl3); format: physicochemical; conditions: for Precipitation (%): drug 50 μM, pH 6.5, 30 min, 24 °C
Procedure: AlCl3 was also dissolved in the same buffer at a concentration of 50 μM, 100 μM, 200 μM, 1 mM, or 2 mM, and each drug solution and AlCl3 solution were mixed at an equal volume. The mixture solution was shaken, stood for 30 min at 24 °C and centrifuged. The supernatant was filtrated through a syringe filter with 0.22 μm of pore size (Millipore, Tokyo, Japan).

[2] = individual rabbits
Excerpt: (§1) Rabbits were supplied solid food for rabbits (CR-3M, CLEA Japan, Inc., Tokyo, Japan), and the average amount of CR-3M that each rabbit ingested was 100–110 g/day. CR-3M contains various vitamins and cationic metals including Ca, Mg, and iron (Fe^2+, Fe^3+) in addition to various energy sources. […] Coprophagy was not prevented in control rabbits.
To estimate gastric contents, gastric Ca and Mg concentrations, and gastric pH in the untreated control (not fasted), control (fasted) and EDTA-treated rabbits, rabbits were sacrificed by intraperitoneal injection of an excess amount of pentobarbital. Rabbits were opened along the midline and their stomach was isolated. The stomach contents were taken out into a test tube and weighed, and the suspension was centrifuged at 3000 rpm for 10 min to measure the amount of gastric water. Then, concentrations of the Ca and Mg in the supernatant were measured by using L type Wako Ca (Fujifilm, Tokyo, Japan) and L type Wako Mg N (Fujifilm, Tokyo, Japan), respectively, and an automated clinical chemistry analyzer, TBA-nx360 (Canon, Tokyo, Japan). The pH of gastric water was also determined.

[3] = Mucosal damage after EDTA treatment: oral absorption of FD-4; conditions: >10 mL of 1 mg/mL EDTA 2Na orally, rabbits
Procedure: FD-4 was administered orally by stomach intubation at 10 mg/kg and 10 mL water. Blood (100 μL each) was taken periodically at 0, 0.5, 1, 2, and 4 h after administration from the ear vein. […] The concentrations of FD-4 in plasma were determined by Spectro fluorophotometer RF-1500 (Shimadzu Co., Ltd., Kyoto, Japan) using an excitation and emission wavelength of 480 nm and 520 nm, respectively.

[4] = rats; cited from earlier work
[5] = in vivo; conditions: for AUC(0-t) / AUC(0-inf) / bioavailability / Cmax / Tmax: male, albino, rabbit, in vivo, po, 150 mg/kg, TC 150 mg/kg orally; for AUC(0-t): AUC0–6h; for AUC(0-inf): AUC0–∞; for bioavailability: Bioavailability (absolute oral)
Procedure: as §1
After administration orally by stomach intubation, blood samples (100 μL each) were taken periodically from the ear vein at 0.25, 0.5, 1, 2, 4 and 6 h. Blood samples were centrifuged at 3000× g for 10 min to obtain plasma samples.

[6] = control rabbits
[7] = in vivo; conditions: male, albino, rabbit, iv, 10 mg/kg
[8] = cited from earlier work
[9] = gastric water, EDTA-treated rabbits

SMILES: O=C([O-])CN(CCN(CC(=O)O)CC(=O)O)CC(=O)[O-].[Na+].[Na+] [EDTA 2Na, disodium ethylenediamine tetraacetic acid]
- Effect of added EDTA 2Na on precipitation of CFX with AlCl3 ([1]; EDTA 2Na 4 mg/mL, 12 mM added to mixture solutions of CFX and AlCl3): completely inhibited
- Gastric Contents (g) ([2]; EDTA-treated rabbits (free access to 1 mg/mL EDTA 2Na, 10 mL at 1 h before; coprophagy prevented)): (3) 13.1 (hair > pellets) g; also recorded: (1) 9.5 (hair > pellets) g; also recorded: (2) 7.8 (hair > pellets) g
- Gastric pH ([2]; EDTA-treated rabbits): 1.3 and 1.6 and 1.2
- Water Contents ([2]; EDTA-treated rabbits): 10.5 mL and 6.7 mL and 4.8 mL
- Concentrations Ca [2, 9]: 1.9 mg/dL and 2.6 mg/dL and 1.3 mg/dL
- Concentrations Mg [2, 9]: 1.9 mg/dL and 1.6 mg/dL
- Mucosal damage after EDTA treatment [3]: without causing mucosal damage
- Lowest effective dose to increase the permeability of dichloromethylene bisphosphonate [4]: 100 mg/kg
- Minimal effective dose to increase membrane permeability to 4-amino-1-hydroxybutylidene-1,1-bisphosphonate [4]: 10 mg/kg

SMILES: CN(C)[C@@H]1C(O)=C(C(N)=O)C(=O)[C@@]2(O)C(O)=C3C(=O)c4c(O)cccc4[C@@](C)(O)[C@H]3C[C@@H]12 [TC, tetracycline hydrochloride]
- Precipitation (%) ([1]; AlCl3 25 μM): 63.2 ± 21.3%
- Precipitation (%) ([1]; AlCl3 50 μM): 84.0 ± 13.9%
- Precipitation (%) ([1]; AlCl3 100 μM): 91.6 ± 7.3%
- Precipitation (%) ([1]; AlCl3 500 μM): 96.2 ± 5.7%
- Precipitation (%) ([1]; AlCl3 1 mM): 99.4 ± 1.19%
- TC in plasma after oral administration ([5]; at a lower dose than 30 mg/kg, rabbits): not detected
- AUC(0-t) ([5]; EDTA-treated rabbits): 4680 ± 930 ng·h/mL
- AUC(0-t) ([5]; control rabbits): 2540 ± 910 ng·h/mL
- AUC(0-inf) ([5]; EDTA-treated rabbits): 6490 ± 1080 ng·h/mL
- AUC(0-inf) ([5]; control rabbits): 3390 ± 1260 ng·h/mL
- bioavailability ([5]; EDTA-treated rabbits): 4.9 ± 0.81%
- bioavailability ([5]; control rabbits): 2.56 ± 0.95%
- Cmax ([5]; EDTA-treated rabbits): 1120 ± 280 ng/mL
- Cmax ([5]; control rabbits): 730 ± 220 ng/mL
- Tmax ([5]; EDTA-treated rabbits): 2 h
- Tmax ([5]; control rabbits): 1.67 ± 0.58 h
- β ([6]; […] iv infusion, LFX 20, CFX 30, TC 10 mg/kg): 0.28 ± 0.10 h⁻¹
- Total plasma clearance (CLtotal), Doseiv/AUC0–∞ ([6]; iv infusion): 18.83 mL/min/kg
- AUC(0-t) [7]: 7570 ± 1380 ng·h/mL
- Oral bioavailabilities in humans ([8]; LFX 200–750 mg, CFX 200–1000 mg, TC 250 mg, ref references listed in the discussion section): 77–88% (250 mg)
- Absolute oral bioavailability ([8]; humans, dose of 250 mg): 77–88%
